Counter-ions that a name gives are not always drawn. Like-named read-outs stand apart in the source and are kept apart here.
Assays:
[1] = test system: MV4-11 (Acute myelogenous leukemia); test: Cellular Proliferation Assay, cell line C; type: cell-based; conditions: Homo sapiens; MV4-11, 72 hours, CelltiterBlue; read-out: Cell Line C antiproliferative IC50
Protocol: (§1) The assay for determination of the antiproliferative activity of multiple Pim inhibitors in the JAK2-driven cell lines was conducted as follows. Cells were plated out to 96-well plates at an initial density of 10,000 cells/well in 95 pt. Compounds were prepared at […] in DMSO by conducting 3-fold serial dilutions to give a 10-point dosing curve having a high dose of 1000 μM. Aliquots (5 μt) of these dilutions were then transferred to the appropriate wells of the 96-well plates containing cells to yield a final DMSO concentration of 0.5%. The cells were then incubated with compound for 72 hours at 37° C., 5% CO2. CelltiterBlue reagent (Promega, Catalog #: G8080) was then added (20 μL/well) and incubated at 37° C., 5% CO2 for 1-8 hours depending on the cell line being analyzed. The plate was then quantified employing a fluorescence plate reader (Model: Gemini [Molecular Devices]; Settings: 560 nm (Ex)/590 nm (Em) 570 nm (cut-off) [CellTiter Blue Assay].
The values for each well were then converted to a percent of untreated control (POC). These POC values were then plotted as a function of compound concentration. A 4-parameter curve-fit analysis was performed for each compound dilution and an IC50 value was calculated from this curve. […]

[2] = test system: BaF3 TEL-JAK2 (Mouse pro-B-cell transformed with TEL-JAK2 fusion); test: Cellular Proliferation Assay, cell line G; type: cell-based; conditions: BaF3 TEL-JAK2, 72 hours, CelltiterBlue, read-out: Cell Line G antiproliferative IC50
Protocol: as §1
(§2) The values for each well were then converted to a percent of untreated control (POC). These POC values were then plotted as a function of compound concentration. A 4-parameter curve-fit analysis was performed for each compound dilution and an IC50 value was calculated from this curve.
(§3) Cell lines • A: PC3 (Androgen independent prostate cancer) • B: K562 (Ph+chronic myelogenous leukemia) • C: MV4-11 (Acute myelogenous leukemia) • D: BxPC3 (Pancreatic Cancer) • E: HepG2 (Hepatocellular Carcinoma) • F: BaF3 (Mouse pro-B-cell line) • G: BaF3 TEL-JAK2 (Mouse pro-B-cell transformed with TEL-JAK2 fusion) • H: BaF2 BCR-Ab1 (Mouse pro-B-cell transformed with BCR-Ab1 fusion)

[3] = biological target: GST-tagged recombinant full-length human PIM-2 (Homo sapiens (Human), UniProt Q9P1W9); test: PIM-2 Enzyme Assay; conditions: read-out: PIM-2 IC50; 4 μM ATP, […] PIM-2
Chain of GST-tagged recombinant full-length human PIM-2 (Q9P1W9 whole entry): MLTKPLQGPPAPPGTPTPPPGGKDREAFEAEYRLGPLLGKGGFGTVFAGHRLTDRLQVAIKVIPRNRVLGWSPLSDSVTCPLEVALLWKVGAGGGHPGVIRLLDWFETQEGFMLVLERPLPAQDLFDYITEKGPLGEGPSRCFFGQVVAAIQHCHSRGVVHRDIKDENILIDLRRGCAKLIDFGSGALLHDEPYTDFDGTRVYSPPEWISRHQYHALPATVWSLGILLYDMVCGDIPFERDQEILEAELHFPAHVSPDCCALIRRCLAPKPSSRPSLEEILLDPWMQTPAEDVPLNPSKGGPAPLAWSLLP
Protocol: (§4) The amount of radiolabeled product is then measured by liquid scintillation counting. The final buffer conditions were as follows: 20 mM K^+MOPS, pH 7.4, 10 mM MgCl2, 0.005% Tween-20, 1 mM DTT. […] Incubations were carried out for 60 min at 22° C. and quenched with 75 μL of 200 mM H3PO4, filtered through a Whatman P81 plate and washed (1×200 μL and 5×100 μL ) with 200 mM H3PO4. Liquid scintillation cocktail (50 μL ) was then added per well, and the plate was counted for 30 s/well using a TopCount NXT.
(§5) One-μL aliquots of these were then transferred to the assay mixtures above to give a final concentration of DMSO of 2%. […] For each plate, percent of control (POC) values were calculated for each well. IC50's were estimated from the POC's using a standard 4-parameter logistic model. The IC50 is defined as the concentration of inhibitor at which the POC equals 50 for the fitted curve.

[4] = test system: BxPC3 (Pancreatic Cancer); test: Cellular Proliferation Assay, cell line D; type: cell-based; conditions: Homo sapiens, BXPC-3; BxPC3, 72 hours, CelltiterBlue; read-out: Cell Line D antiproliferative IC50
Protocol: as §1, §2, §3

CD4+ T cells = test: T Cell in vitro Functional Assay (A): proliferation; type: cell-based; conditions: Mus musculus, anti-CD3/anti-CD28, 40 hours
Protocol: The in vitro assays to assess the effects of the compounds of Examples 16, 18 and 26 on T cells were conducted as described in assays A, B, C and D below. CD4+ T cells were isolated from red blood cell-depleted splenocytes of C57B1/6J mice (Jackson Laboratories, catalog #000664) using CD4+ T cell isolation kit (Miltenyi, catalog #130-090-860).
In assay (A), purified CD4+ T cells were plated in 96 well plates at 90000 cells/well in 90 μL. A dilution series of the compounds of Examples 16, 18 and 26 were prepared at 100× the final concentration in DMSO and then diluted 10-fold into complete media (10× stocks). 10 μL of 10×compound stocks were added to appropriate wells of 96 well plates containing cells and incubated for 1 hour at 37° C., 5% CO2. The cell/compound mixtures were then transferred to a 96 well plate coated with anti-CD3 mAb (1 μg/mL; BD Pharmingen, catalog #553057) and soluble anti-CD28 mAb (1 μg/mL; BD Pharmingen, catalog #553294) was added. Plates were cultured at 37° C., 5% CO2 for 40 hours. 20 μL of the culture were removed for determination of proliferation using the CellTitre-Glo™ luminescent assay (Promega, Catalog #G7571) according to the manufacturer's protocol. The plate was quantified on a Packard TopCount instrument using luminescence protocol and data was analyzed using Prism software.
For each of assays A, B, C and D, the values for each well were converted to a percent of vehicle-treated (DMSO) control (POC). These POC values were plotted as a function of compound concentration and an IC50 calculated using a 4-parameter curve-fit analysis program.

recombinant rat PIM-3 = recombinant rat PIM-3 (Rattus norvegicus (Rat), UniProt O70444); test: PIM-3 Enzyme Assay; conditions: read-out: PIM-3 IC50; 30 μM ATP, 0.5 nM PIM-3
Protocol: as §4, §5

[5] = test system: K562 (Ph+chronic myelogenous leukemia); test: Cellular Proliferation Assay, cell line B; type: cell-based; conditions: Homo sapiens; K562, 72 hours, CelltiterBlue; read-out: Cell Line B antiproliferative IC50
Protocol: as §1, §2, §3

[6] = test system: HepG2 (Hepatocellular Carcinoma); test: Cellular Proliferation Assay, cell line E; type: cell-based; conditions: Homo sapiens; HepG2, 72 hours, CelltiterBlue; read-out: Cell Line E antiproliferative IC50
Protocol: as §1, §2, §3

PIM-1 = PIM-1 (Homo sapiens (Human), UniProt P11309); test: PIM-1 Enzyme Assay; type: biochemical
Chain of PIM-1 (P11309 whole entry, species assumed): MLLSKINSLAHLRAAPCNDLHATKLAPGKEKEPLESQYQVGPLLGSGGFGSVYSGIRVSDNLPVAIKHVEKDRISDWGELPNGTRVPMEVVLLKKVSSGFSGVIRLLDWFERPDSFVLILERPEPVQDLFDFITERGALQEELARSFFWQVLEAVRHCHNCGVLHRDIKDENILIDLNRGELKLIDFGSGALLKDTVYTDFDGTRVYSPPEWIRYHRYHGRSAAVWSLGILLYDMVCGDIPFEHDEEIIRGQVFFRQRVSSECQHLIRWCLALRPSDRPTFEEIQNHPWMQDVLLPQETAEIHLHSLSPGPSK
Method in brief: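 Radiometric kinase assay in 20 mM K+MOPS pH 7.4, 10 mM MgCl2, 0.005% Tween-20, 1 mM DTT, 2% DMSO final; 60 min at 22° C, stopped with H3PO4, product captured on P81 filter and counted by scintillation. IC50 from 4-parameter logistic fit of percent of control.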

IC50 [2] [nM] | IC50 [3] [nM] | IC50 [4] [nM] | IC50 (recombinant rat PIM-3) [nM] | IC50 [5] [nM] | IC50 [6] [nM] | IC50 (PIM-1; 35 μM ATP, 0.25 nM PIM-1) [nM] | Structure (SMILES) | IC50 [1] [nM] | IC50 (CD4+ T cells) [nM] | IC50 (PIM-1) [nM]
< 2000 | 49 | < 10000 | 2 | < 5000 | < 10000 | – | CC(C)(CN)COc1cccc2ccc(-c3nnc4ccccn34)nc12 [Example 18, 3-(2-([1,2,4]Triazolo[4,3-a]pyridin-3-yl)quinolin-8-yloxy)-2,2-dimethylpropan-1-amine] | < 2000 | ≤ 1000 | –
< 2000 | 169 | > 10000 | 4 | < 10000 | > 10000 | 1 | c1cc(OCC2CCCNC2)c2nc(-c3nnc4ccccn34)ccc2c1 (centres unmarked) [Example 16, 2-([1,2,4]Triazolo[4,3-a]pyridin-3-yl)-8-(piperidin-3-ylmethoxy)quinoline] | – | ≤ 1000 | –

Structure (SMILES) | IC50 [2] [nM] | IC50 [3] [nM] | IC50 [4] [nM] | IC50 (recombinant rat PIM-3) [nM] | IC50 [5] [nM] | IC50 [6] [nM] | IC50 (PIM-1; 35 μM ATP, 0.25 nM PIM-1) [nM] | IC50 [1] [nM] | IC50 (CD4+ T cells) [nM] | IC50 (PIM-1) [nM]
F[C@@H]1CNCCC1Oc1cccc2ccc(-c3nnc4ccccn34)nc12 (stereo in doubt) [Example 26, 2-([1,2,4]triazolo[4,3-a]pyridin-3-yl)-8-((cis)-3-fluoropiperidin-4-yloxy)quinoline dihydrochloride] | < 2000 | 137 | – | 9 | < 10000 | – | – | < 2000 | ≤ 5000 | 3

Source: patent US8575145B2, “Triazolopyridine compounds as PIM kinase inhibitors” (Array BioPharma Inc., priority 2008, dated 2013)
